The values below come from patent publication US20260234157A1, “COMPOUND AND METHOD FOR TARGETED DEGRADATION OF ANDROGEN RECEPTOR” (Gan & Lee Pharmaceuticals Co., Ltd., priority 2023, published 2026).

Structures are written as SMILES. Changes are numbered by the printed parent chain. Read-outs that look alike come from different tables or passages of the source.

Holding throughout (type): cell-based
Assay [1] deals with T1, AR protein (Homo sapiens, UniProt P10275, T878A).
T1 construct: degradation activity of the compounds disclosed in the present disclosure on AR protein in LNCaP cells; host or cells: LNCaP FGC
T1 sequence (P10275 1-920 T878A): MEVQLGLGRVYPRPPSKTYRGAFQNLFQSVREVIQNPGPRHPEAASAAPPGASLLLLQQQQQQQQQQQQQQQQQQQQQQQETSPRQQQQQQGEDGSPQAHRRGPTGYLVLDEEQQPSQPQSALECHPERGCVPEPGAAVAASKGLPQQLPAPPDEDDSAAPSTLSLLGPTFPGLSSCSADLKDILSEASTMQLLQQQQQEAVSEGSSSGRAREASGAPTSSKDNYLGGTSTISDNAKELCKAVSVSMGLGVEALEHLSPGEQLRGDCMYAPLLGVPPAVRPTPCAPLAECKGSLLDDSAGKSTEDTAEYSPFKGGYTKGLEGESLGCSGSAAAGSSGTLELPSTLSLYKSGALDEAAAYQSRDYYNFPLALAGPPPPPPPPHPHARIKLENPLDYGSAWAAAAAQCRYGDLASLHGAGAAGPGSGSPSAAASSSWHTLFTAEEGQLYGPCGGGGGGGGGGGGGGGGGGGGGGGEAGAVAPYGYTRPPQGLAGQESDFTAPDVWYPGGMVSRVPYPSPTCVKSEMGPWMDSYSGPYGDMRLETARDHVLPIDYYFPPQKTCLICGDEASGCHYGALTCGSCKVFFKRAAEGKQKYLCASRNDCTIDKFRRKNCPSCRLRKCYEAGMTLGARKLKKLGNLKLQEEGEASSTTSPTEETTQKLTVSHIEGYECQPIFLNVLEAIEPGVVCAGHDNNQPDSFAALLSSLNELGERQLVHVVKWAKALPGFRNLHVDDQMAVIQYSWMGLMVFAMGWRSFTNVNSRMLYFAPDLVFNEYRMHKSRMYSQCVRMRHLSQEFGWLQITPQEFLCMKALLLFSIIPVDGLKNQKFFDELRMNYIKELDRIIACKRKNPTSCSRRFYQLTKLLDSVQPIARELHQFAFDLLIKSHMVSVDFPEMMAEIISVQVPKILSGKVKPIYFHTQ
Description: Degradation of AR protein in LNCaP cells (Western blot). The following applies: for inhibition at 0.01 µM: read-out: Degradation rates of the AR protein in LNCaP cells, 10 nM (%); for inhibition at 0.1 µM: read-out: Degradation rates of the AR protein in LNCaP cells, 100 nM (%). The method, then: The degradation activity of the compounds disclosed in the present disclosure on AR protein in LNCaP cells (cell source: ATCC)
(§1) Corresponding solvent controls were also set and cultured for 8 hours. After 8 hours of cultivation, the culture medium was removed and the cells were washed with PBS. RIPA lysis buffer containing 1% Protease Inhibitor Cocktail was added, and the total protein extract was obtained by lysis and centrifugation. The protein concentration in the extract was detected by BCA method. Protein electrophoresis was performed using SDS-PAGE, followed by transfer of the protein onto a PVDF (Millipore Sigma catalog No. PSRP010R5) membrane at 100V constant voltage for 60 minutes. The PVDF membrane was then placed in a 1×TBST solution with 5% milk and blocked at room temperature for 1 hour. […] The primary antibody solution was discarded and the PVDF membrane was washed three times with 1×TBST for 5 minutes/time. […] The secondary antibody solution was discarded and the PVDF membrane was washed three times with 1×TBST for 5 minutes/time. Western blot imaging was performed by using a dual color infrared laser imaging system (Licor catalog No. Odyssey CLX). Bands were analyzed in grayscale using Image Studio software. For each sample, GAPDH protein bands were detected as internal reference. The degradation rates of the AR protein for the compounds and the positive control sample were calculated based on grayscale of the protein bands.

A further assay deals with LNCaP FGC cells. Description: Inhibition of proliferation of LNCaP cells (WST-8). The method, then: The cells were cultured in a cell culture incubator with 5% CO2 at 37° C. overnight. […] On the sixth day, 96 well plates were taken out, and 20 μL of WST-8 (Beytime, C0040) reagent was added to each well.
A general note: Tetrazolium dyes change colour on reduction, which living cells bring about.

Assay [2] addresses T2, AR protein (Homo sapiens, UniProt P10275).
T2 construct: degradation activity of the compounds disclosed in the present disclosure on AR protein in VCaP cells; host or cells: VCaP
T2 sequence (P10275 1-920): T1 sequence (P10275 1-920 T878A) with A878T
Nature of the assay: Degradation of AR protein in VCaP cells (Western blot). Conditions: 8 hours; for inhibition at 0.01 µM: compound at 10 nM, read-out: Degradation rate of the AR protein in VCaP cells, 10 nM (%); for inhibition at 0.1 µM: compound at 100 nM, read-out: Degradation rate of the AR protein in VCaP cells, 100 nM (%). The method, then: The degradation activity of the compounds disclosed in the present disclosure on AR protein in VCaP cells (cell source: ATCC)
as §1

The mark [3] stands for this setting: LNCaP cells, compound 10 nM, 8 hours, Western blot grayscale, GAPDH internal reference.
Setting [4] is: LNCaP cells, compound 100 nM, 8 hours, Western blot grayscale, GAPDH internal reference.
[5] abbreviates: Homo sapiens, LNCaP, 96 h, LNCaP FGC cells, 96 hours, WST-8 absorbance at 450 nm, read-out: IC50 for inhibiting the proliferation of LNCaP cells.
[6] abbreviates: Homo sapiens, LNCaP, 96 h, read-out: IC50 for inhibiting the proliferation of LNCaP cells, LNCaP FGC cells, 96 hours, WST-8 absorbance at 450 nm.

For `N#Cc1ccc(O[C@H]2CC[C@H](NC(=O)c3ccc(N4CCC5(CC4)CC(N4CCC6(CC4)COc4c(ccc7c4C(=O)N(C4CCC(=O)NC4=O)C7)C6)C5)nn3)CC2)cc1Cl` (some centres unmarked) [Compound 188], the inhibition at 0.01 µM on AR protein [1] (setting [3]) was 68%; at AR protein [2] it was 63%. Also, the figures for the inhibition at 0.1 µM on AR protein [1] (setting [4]) and on AR protein [2] were 66% and 79%, respectively. Moreover, the IC50 in the assay with LNCaP FGC cells (setting [5]) came to 3.72 µM.

Take `N#Cc1ccc(O[C@H]2CC[C@H](NC(=O)c3ccc(N4CCC5(CCC(N6CCC7(CC6)COc6c(ccc8c6C(=O)N(C6CCC(=O)NC6=O)C8)C7)CC5)CC4)nn3)CC2)cc1Cl` (some centres unmarked) [Compound 190]: on AR protein [1] (setting [3]), the inhibition at 0.01 µM was 53%. Moreover, the inhibition at 0.1 µM on AR protein [1] (setting [4]) came out at 75%. For the same compound, the IC50 with LNCaP FGC cells (setting [5]) was 5.15 µM.

For the compound `COc1cc(OC2CCC(NC(=O)c3cnc(N4CCC(C)(CN5CCC6(CC5)COc5c6ccc6c5CN(C5CCC(=O)NC5=O)C6=O)CC4)nc3)CC2)ccc1C#N` (centres unmarked) [Compound 247], the inhibition at 0.01 µM at AR protein [1] (setting [3]) is -10%; on AR protein [2], 53%. For the same compound, the inhibition at 0.1 µM on AR protein [1] (setting [4]) was 27%; on AR protein [2] it was 70%. Moreover, the IC50 in the assay on LNCaP FGC cells (setting [5]) was determined as 0.015 µM.

On to `COc1cc(O[C@H]2C(C)(C)[C@H](NC(=O)c3ccc(N4CCC(F)(CN5CC6(CCc7ccc8c(c7O6)C(=O)N(C6CCC(=O)NC6=O)C8=O)C5)CC4)cc3)C2(C)C)ccc1C#N` (some centres unmarked) [Compound 274], for which the inhibition at 0.01 µM was -3% on AR protein [1] (setting [3]) and 4% at AR protein [2]. The values for the inhibition at 0.1 µM on AR protein [1] (setting [4]) and on AR protein [2] were -5% and -13%, respectively. Also, the IC50 with LNCaP FGC cells (setting [5]) was 84.9 µM.

Turning to `N#Cc1ccc(O[C@H]2CC[C@H](NC(=O)c3ccc(N4CC[C@H](CN5CCC6(CC5)COc5c6ccc6c5CN(C5CCC(=O)NC5=O)C6=O)[C@H](F)C4)nn3)CC2)cc1Cl` (some centres unmarked) [Compound 226], the inhibition at 0.01 µM was found to be 52% at AR protein [1] (setting [3]) and 74% on AR protein [2]. Further, the values for the inhibition at 0.1 µM at AR protein [1] (setting [4]) and at AR protein [2] were 34% and 83%, respectively. For the same compound, in the assay on LNCaP FGC cells (setting [5]), the IC50 is 0.0025 µM.

Consider `CC1(CN2CCC3(CC2)COc2c3ccc3c2CN(C2CCC(=O)NC2=O)C3=O)CCN(c2ccc(C(=O)N[C@H]3C(C)(C)[C@H](Oc4ccc(C#N)c(Cl)c4)C3(C)C)cc2)CC1` (some centres unmarked) [Compound 222], for which the inhibition at 0.01 µM at AR protein [1] (setting [3]) worked out at 4%; on AR protein [2], 8%. Moreover, the inhibition at 0.1 µM at AR protein [1] (setting [4]) turned out to be 75%; at AR protein [2], 61%. Also, the IC50 in the assay with LNCaP FGC cells (setting [5]) worked out at 0.88 µM.

Consider `N#Cc1ccc(O[C@H]2CC[C@H](NC(=O)c3ccc(N4CCC5(CC4)COc4c5ccc5c4CN(C4CCC(=O)NC4=O)C5=O)nn3)CC2)cc1Cl` (some centres unmarked) [Compound 200], for which the inhibition at 0.01 µM at AR protein [1] (setting [3]) amounted to 44%; at AR protein [2], 25%. Further, the inhibition at 0.1 µM on AR protein [1] (setting [4]) stood at 27%; on AR protein [2], 57%. In the assay with LNCaP FGC cells (setting [5]), the IC50 was found to be 91 µM.

Take `COc1cc(O[C@H]2C(C)(C)[C@H](NC(=O)c3ccc(N4CCC(CN5CCC6(CCc7ccc8c(c7O6)CN(C6CCC(=O)NC6=O)C8=O)CC5)CC4)cc3)C2(C)C)ccc1C#N` (some centres unmarked) [Compound 298]: on AR protein [1] (setting [3]), the inhibition at 0.01 µM was 27%. Further, the inhibition at 0.1 µM on AR protein [1] (setting [4]) was determined as 55%. Moreover, in the assay with LNCaP FGC cells (setting [5]), the IC50 was 12.1 µM.

Consider `N#Cc1ccc(O[C@H]2CC[C@H](NC(=O)c3ccc(N4CCC(N5CCC6(CC5)COc5c(ccc7c5C(=O)N(C5CCC(=O)NC5=O)C7)C6)CC4)nn3)CC2)cc1Cl` (some centres unmarked) [Compound 189], for which, on AR protein [1] (LNCaP, 8 h), the inhibition at 0.01 µM amounted to 42% and the inhibition at 0.1 µM was 57%. Also, the IC50 with LNCaP FGC cells (setting [6]) is 26.9 µM.

In the case of `CC1(CN2CCC3(CC2)COc2c(ccc4c2C(=O)N(C2CCC(=O)NC2=O)C4)C3)CCN(c2ccc(C(=O)NC3CCC(Oc4ccc(C#N)c(Cl)c4)CC3)nn2)CC1` (centres unmarked) [Compound 187], the IC50 in the assay on LNCaP FGC cells (setting [5]) stood at 0.39 µM.

On to `N#Cc1ccc(O[C@H]2CC[C@H](NC(=O)c3ccc(N4CCC(F)(CN5CCC6(CC5)COc5c6ccc6c5CN(C5CCC(=O)NC5=O)C6=O)CC4)nc3)CC2)cc1Cl` (some centres unmarked) [Compound 216], for which, in the assay with LNCaP FGC cells (setting [5]), the IC50 amounted to 0.006 µM. At AR protein [2], the inhibition at 0.01 µM came to 54% and the inhibition at 0.1 µM is 80%.

For the compound `CC1(CN2CC3(CCc4cc5c(cc4O3)CN(C3CCC(=O)NC3=O)C5=O)C2)CCN(c2ccc(C(=O)N[C@H]3CC[C@H](Oc4ccc(C#N)c(Cl)c4)CC3)nn2)CC1` (some centres unmarked) [Compound 12], the IC50 in the assay with LNCaP FGC cells (LNCaP FGC cells, 96 hours, WST-8 absorbance at 450 nm, read-out: IC50 for inhibiting the proliferation of LNCaP cells) is 0.73 µM.

On to `CC1(CN2CCC3(CCc4cc5c(cc4O3)C(=O)N(C3CCC(=O)NC3=O)C5=O)CC2)CCN(C(=O)c2ccc(N3C(=S)N(c4ccc(C#N)c(C(F)(F)F)c4)C(=O)C3(C)C)cc2F)CC1` (centres unmarked) [Compound 108], for which the IC50 with LNCaP FGC cells (setting [6]) is 10.4 µM.

As for `CC1(C)C(=O)N(c2ccc(C#N)c(C(F)(F)F)c2)C(=S)N1c1ccc(C(=O)N2CCC3(CCC(N4CCC5(CCc6cc7c(cc6O5)C(=O)N(C5CCC(=O)NC5=O)C7=O)CC4)CC3)C2)c(F)c1` (centres unmarked) [Compound 129], in the assay with LNCaP FGC cells (setting [5]), the IC50 was 3.63 µM.

Turning to `CC1(C)C(=O)N(c2ccc(C#N)c(C(F)(F)F)c2)C(=S)N1c1ccc(C(=O)N2CC3(CC(N4CCC5(CC4)COc4cc6c(cc4C5)C(=O)N(C4CCC(=O)NC4=O)C6=O)C3)C2)c(F)c1` (centres unmarked) [Compound 115], in the assay with LNCaP FGC cells (setting [6]), the IC50 stood at 10.8 µM.
